Experimental data published in patent publication US5093370A, “Quaternary ammonium compounds having muscle relaxation activity” (priority 1989, dated 1992).

Tests used:
[1] = system: neuromuscular preparations (hemiinterseptum neuromuscule); experiment: Muscle relaxation action under a diabetic condition (neuromuscular preparations from alloxan-treated mice); type: cell-based; conditions: Mus musculus; alloxan diabetic ddY mice 8 to 11 weeks old, blood glucose 310 to 460 mg/dl; parentheses: 90% reliance
Procedure: (§1) To prepare neuromuscular preparations ddY mice 6 to 10 weeks old weighing 27.0 to 42.0 g were decapitated, venesected, and the hemiinterseptum neuromuscule was removed. This preparation was suspended by applying 1 gram of a strain in Krebs-Henseleit's solution at 36 ±1° C., through which a mixed gas of carbon dioxide/oxygen (5:95) was passed, an electric shock (0.4 to 0.5V, 0.2 Hz, […].) was applied to the nerve by platinum electrodes, and the resulting short contraction reaction was detected by an isometric transducer (Nippon Koden Sha, Japan) and recorded by a biophysiograph system (San-Ei, Japan). An average of 12 contraction height data obtained one minute prior to the administration of a test compound was used as a control. The test compound was accumulatively administered at two minute intervals, and the contraction height two minutes after each administration was compared with the control, to calculate the percentage of inhibition. To ensure the reliability of the tests, usually four measurements were used for each administration.
Muscle relaxation action under a diabetic condition IC50
Alloxan monohydrate (Nakarai Kagaku, Japan) was administered to the tail vein of ddY mice 4 to 5 weeks old, in a dose of 85 mg/kg, and the blood glucose level was monitored starting at the 28th day, by a glucose analyzer from the administration of alloxan (Bechmann Type II). Mice 8 to 11 weeks old and weighing 19.0 to 36.0 g, and having a blood glucose level of 310 to 460 mg/dl, were chosen and used to prepare neuromuscular preparations as described above.

[2] = system: neuromuscular preparations (hemiinterseptum neuromuscule); experiment: Muscle relaxation action: inhibition of nerve-evoked contraction of mouse neuromuscular preparation; type: cell-based, ddY mice; conditions: read-out: Muscle relaxation action IC50 (90% reliance)
Procedure: Muscle relaxation action IC50)
as §1, with “administration. The IC50 value was obtained on a line linearized by the method of least […] from a scope from a 10 to 60% inhibition in a log dose-inhibition curve.” for “administration.”

[3] = ddY mice 6 to 10 weeks old, Krebs-Henseleit's solution, 36 ±1° C., contraction height two minutes after each cumulative administration, parentheses: 90% reliance

Row | Structure (SMILES) | IC50 [1] | IC50 [2, 3] | IC50 [2]
1 | C[N+](C)(C)CCCCCCCCCC[N+](C)(C)C [Decamethonium, reference compound] | 131 µM | 101 µM | 
2 | C[N+](C)(C)CCCCc1ccc(CCCC[N+](C)(C)C)cc1 [Example 1, 1,4-Bis(4-trimethylammoniobutyl)benzene diiodide] | 25.9 µM |  | 22.8 µM
3 | C[N+](C)(C)CCCC(=O)c1ccc(C(=O)CCC[N+](C)(C)C)cc1 [Example 2, 1,4-Bis(4-trimethylammoniobutyryl)benzene diiodide] | 32.7 µM |  | 26 µM
4 | C[N+](C)(C)CCCC(O)c1ccc(C(O)CCC[N+](C)(C)C)cc1 (stereo not shown) [Example 3, 1,4-Bis(1-hydroxy-4-trimethylammoniobutyl)benzene diiodide] |  | 209 µM | 
5 | CC(=O)OC(CCC[N+](C)(C)C)c1ccc(C(CCC[N+](C)(C)C)OC(C)=O)cc1 (stereo not shown) [Example 4, 1,4-Bis(1-acetoxy-4-trimethylammoniobutyl)benzene diiodide] |  |  | 450 µM
6 | CC[N+](CC)(CC)CCCc1ccc(CCC[N+](CC)(CC)CC)cc1 [Example 6, 1,4-Bis(3-triethylammoniopropyl)benzene diiodide] |  | 176 µM | 
7 | C[N+]1(CCCc2ccc(CCC[N+]3(C)CCCCC3)cc2)CCCCC1 [Example 7, 1,4-Bis3-(1-methyl-1-piperidinio)propyl]benzene dibromide] |  |  | 119 µM
8 | c1cc[n+](CCCc2ccc(CCC[n+]3ccccc3)cc2)cc1 [Example 8, 1,4-Bis[3-(1-pyridinio)propyl]benzene dibromide] |  | 207 µM | 
9 | CC[N+](CC)(CC)CCCCCc1ccc(CCCCC[N+](CC)(CC)CC)cc1 [Example 10, 1,4-Bis(5-triethylammoniopentyl)benzene diiodide] |  | 11.2 µM | 
10 | C[N+]1(CCCCCc2ccc(CCCCC[N+]3(C)CCCCC3)cc2)CCCCC1 [Example 11] |  | 60.7 µM | 
11 | C[N+](C)(C)CCOCc1ccc(COCC[N+](C)(C)C)cc1 [Example 12, 1,4-Bis(2-trimethylammonioethoxymethyl)benzene diiodide] |  |  | 750 µM
12 | C[N+](C)(C)CC(CCCc1ccc(CCCC(C[N+](C)(C)C)C[N+](C)(C)C)cc1)C[N+](C)(C)C [Example 13] |  | 1440 µM | 
13 | C[N+](C)(C)CCCCCCCCc1ccccc1 [Example 15, N,N,N-Trimethyl-8-phenyloctylammonium p-tosylate] |  | 252 µM | 
14 | C[N+](C)(C)CCCCc1cccc(CCCC[N+](C)(C)C)c1 [Example 16, 1,3-Bis(4-trimethylammoniobutyl)benzene diiodide] |  |  | 531 µM
15 | C[N+](C)(C)CCCCc1ccccc1CCCC[N+](C)(C)C [Example 17, 1,2-Bis(4-trimethylammoniobutyl)benzene diiodide] |  |  | 59.7 µM
16 | CC[N+](CC)(CC)CCCCc1ccc(CCCC[N+](CC)(CC)CC)cc1 [Example 18, 1,4-Bis(triethylammoniobutyl)benzene diiodide] | 51.1 µM | 52.4 µM | 
17 | C[N+]1(CCCCc2ccc(CCCC[N+]3(C)CCCCC3)cc2)CCCCC1 [Example 19, 1,4-Bis[4-(1-methyl-1-piperidinio)butyl]benzene dibromide] |  | 95.9 µM | 

Row | Structure (SMILES) | IC50 [1] | IC50 [2, 3] | IC50 [2]
18 | C[N+](C)(C)CCCCCCc1ccc(CCCCCC[N+](C)(C)C)cc1 [Example 20, 1,4-Bis(6-trimethylammoniohexyl)benzene diiodide] | 21.7 µM |  | 15.9 µM
19 | CC[N+](CC)(CC)CCCCCCc1ccc(CCCCCC[N+](CC)(CC)CC)cc1 [Example 21, 1,4-Bis(6-triethylammoniohexyl)benzene diiodide] | 7.66 µM | 6.81 µM | 
20 | C[N+]1(CCCCCCc2ccc(CCCCCC[N+]3(C)CCCCC3)cc2)CCCCC1 [Example 22, 1,4-Bis[6-(1-methyl-1-piperidinio)hexyl]benzene dibromide] | 21.8 µM | 17.3 µM | 
21 | C[N+](C)(C)CCCCc1ccc(CCCC[N+](C)(C)C)c([N+](=O)[O-])c1 [Example 23, 1,4-Bis(4-trimethylammoniobutyl)-2-nitrobenzene diiodide] | 11.9 µM |  | 12.7 µM
22 | C[N+](C)(C)CCC#Cc1ccc(C#CCC[N+](C)(C)C)cc1 [Example 25, 1,4-Bis(4-trimethylammonio-1-butynyl)benzene diiodide] |  |  | 110 µM
23 | CC[N+](CC)(CC)CCCCCCc1ccc(CCCCCC[N+](CC)(CC)CC)c([N+](=O)[O-])c1 [Example 26, 1,4-Bis(6-triethylammoniohexyl)-2-nitrobenzene diiodide] |  | 4.52 µM | 
24 | CC[N+](CC)(CC)CCCCCCCc1ccc(CCCCCCC[N+](CC)(CC)CC)cc1 [Example 27, 1,4-Bis(7-triethylammonioheptyl)benzene diiodide] |  | 5.96 µM | 
25 | C[N+](C)(C)CCCSc1ccc(SCCC[N+](C)(C)C)cc1 [Example 28, 1,4-Bis(3-trimethylammoniopropylthio)benzene diiodide] |  | 3.89 µM | 
26 | C[N+](C)(C)CCC[S+]([O-])c1ccc([S+]([O-])CCC[N+](C)(C)C)cc1 (stereo not shown) [Example 29, 1,4-Bis(3-trimethylammoniopropylsulfinyl)benzene diiodide] |  | 5.46 µM | 
27 | C[N+](C)(C)CCCS(=O)(=O)c1ccc(S(=O)(=O)CCC[N+](C)(C)C)cc1 [Example 30, 1,4-Bis(3-trimethylammoniopropylsulfonyl)benzene diiodide] |  | 9.44 µM | 
28 | C[N+](C)(C)CCCc1ccc2cc(CCC[N+](C)(C)C)ccc2c1 [Example 31, 2,6-Bis(3-trimethylammoniopropyl)naphthalene diiodide] |  | 186 µM | 
29 | CC[N+](CC)(CC)CCCc1ccc2cc(CCC[N+](CC)(CC)CC)ccc2c1 [Example 32, 2,6-Bis(3-triethylammoniopropyl)naphthalene diiodide] |  | 79.1 µM | 
30 | CC[N+](CC)(CC)CCCCCSc1ccc(SCCCCC[N+](CC)(CC)CC)cc1 [Example 33, 1,4-Bis(5-triethylammoniopentylthio)benzene diiodide] |  | 1.5 µM | 
31 | C[N+](C)(C)CCCc1ccc(-c2ccc(CCC[N+](C)(C)C)cc2)cc1 [Example 34, 4,4'-Bis(3-trimethylammoniopropyl)biphenyl diiodide] |  |  | 132 µM
32 | CC[N+](CC)(CC)CCCc1ccc(-c2ccc(CCC[N+](CC)(CC)CC)cc2)cc1 [Example 35, 4,4'-Bis(3-triethylammoniopropyl)biphenyl diiodide] |  | 24.9 µM | 
33 | CC[N+](CC)(CC)CCCCCCCCc1ccc(CCCCCCCC[N+](CC)(CC)CC)cc1 [Example 36, 1,4-Bis(8-triethylammoniooctyl)benzene diiodide] |  | 114 µM | 
34 | C[N+](C)(C)CCOC(=O)CCC(=O)OCC[N+](C)(C)C [Succinylcholine, reference compound] | 19.3 µM | 25.2 µM | 
